Tests used:
normal NMRI mice = test: Effect on acute food intake in normal NMRI mice; assay type: in vivo; conditions: male NMRI mice, 10 nmol/kg subcutaneously once
Procedure, shortened: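 A single 10 nmol/kg s.c. peptide dose was given 1 h before lights-off to male NMRI mice fasted from 6 h before the night phase (n=7-8). Intake was recorded continuously by microchip-identified HM-2 feeding channels. Values are normalized to vehicle controls (50 mM phosphate buffer pH7 with 5% Mannitol).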

[1] = molecular target: T1, Human Neuropeptide Y2 Receptor (Homo sapiens, UniProt P49146); test: Radioligand binding competition assay (RLB); conditions: Table 3; human 125I-PYY (1-36) 0.02 nM, Y2 receptor membranes; read-out: Ki
T1 construct: purchased CHEMICON HTS066M
T1 sequence (P49146 1-381): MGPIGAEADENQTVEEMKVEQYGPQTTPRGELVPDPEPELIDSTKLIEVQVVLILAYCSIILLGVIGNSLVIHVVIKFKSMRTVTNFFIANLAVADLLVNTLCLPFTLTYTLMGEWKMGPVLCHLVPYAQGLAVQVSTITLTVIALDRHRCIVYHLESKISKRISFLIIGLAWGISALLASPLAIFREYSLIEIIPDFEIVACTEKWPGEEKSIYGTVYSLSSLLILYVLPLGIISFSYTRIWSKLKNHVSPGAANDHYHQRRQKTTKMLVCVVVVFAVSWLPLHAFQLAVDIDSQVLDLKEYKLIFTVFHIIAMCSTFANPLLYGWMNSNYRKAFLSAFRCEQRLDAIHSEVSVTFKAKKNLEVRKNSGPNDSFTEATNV
Procedure, shortened: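 Competition binding on human Y2 receptor membranes, 0.5 μg protein/well, in 50 mM HEPES, 5 mM MgCl2, 1 mM CaCl2, pH 7.4, 0.2% ovalbumin; peptides diluted from 1 mM DMSO stocks.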

| Ki [1] | Structure (SMILES) | Acute Food Intake 24 h [% vehicle] (normal NMRI mice) |
| --- | --- | --- |
| 1.94 nM | CC(C)CC(=O)N[C@@H](C)C(=O)N1CCC[C@H]1C(=O)N[C@@H](CCC(=O)O)C(=O)N[C@@H](CCCCNC(=O)COCCOCCNC(=O)COCCOCCNC(=O)CC[C@H](NC(=O)CCCCCCCCCCCCCCCCC(=O)O)C(=O)O)C(=O)N1CCC[C@H]1C(=O)N[C@@H](CCC(=O)O)C(=O)N[C@@H](CCC(=O)O)C(=O)N[C@@H](CCC(=O)O)C(=O)N[C@@H](C)C(=O)N[C@@H](CO)C(=O)N1CCC[C@H]1C(=O)N[C@@H](CCC(=O)O)C(=O)N[C@@H](C)C(=O)N[C@@H](CC(C)C)C(=O)N[C@@H](CCC(N)=O)C(=O)N[C@@H](CCCNC(=N)N)C(=O)N[C@@H](Cc1ccc(O)cc1)C(=O)N[C@@H](Cc1ccc(O)cc1)C(=O)N[C@H](C(=O)N[C@@H](CO)C(=O)N[C@@H](CC(C)C)C(=O)N[C@@H](CCCNC(=N)N)C(=O)N[C@@H](Cc1c[nH]cn1)C(=O)N[C@@H](Cc1ccc(O)cc1)C(=O)N[C@@H](Cc1ccc(O)cc1)C(=O)N[C@@H](CC(N)=O)C(=O)N[C@@H](Cc1c[nH]c2ccccc12)C(=O)N[C@@H](CC(C)C)C(=O)N[C@H](C(=O)N[C@@H](CCCNC(=N)N)C(=O)N[C@@H](CCC(N)=O)C(=O)N[C@@H](CCCNC(=N)N)C(=O)N[C@@H](Cc1ccc(O)cc1)C(N)=O)[C@@H](C)O)C(C)C [Compound 115, N{alpha-4}-(3-methylbutanoyl)-N{epsilon-7}-[2-(2-{2-[2-(2-{2-[(4S)-4-carboxy-4-(17-carboxyheptadecanamido)butanamido]ethoxy}ethoxy)acetamido]ethoxy}ethoxy)acetamido]-[4A,7K,9E,11E,16A,18Q,22V,28Y,30W,31L]hPYY (4-36)] | 49 % vehicle |
| 0.5 nM | CC[C@H](C)[C@H](NC(=O)[C@H](CCC(=O)O)NC(=O)[C@H](CCC(=O)O)NC(=O)[C@@H]1CCCN1C(=O)[C@H](C)NC(=O)[C@H](C)NC(=O)[C@H](CC(=O)O)NC(=O)[C@H](CCC(=O)O)NC(=O)[C@H](CCC(=O)O)NC(=O)[C@@H]1CCCN1C(=O)[C@H](CCCCNC(=O)COCCOCCNC(=O)COCCOCCNC(=O)CC[C@H](NC(=O)CCCCCCCCCCCCCCCCC(=O)O)C(=O)O)NC(=O)[C@H](CCC(=O)O)NC(=O)[C@@H]1CCCN1C(=O)[C@H](C)NC(=O)CC(C)C)C(=O)N[C@@H](CCC(N)=O)C(=O)N[C@@H](CCCNC(=N)N)C(=O)N[C@@H](Cc1ccc(O)cc1)C(=O)N[C@@H](Cc1ccc(O)cc1)C(=O)N[C@H](C(=O)N[C@@H](CO)C(=O)N[C@@H](CC(C)C)C(=O)N[C@@H](CCCNC(=N)N)C(=O)N[C@@H](Cc1c[nH]cn1)C(=O)N[C@@H](Cc1ccc(O)cc1)C(=O)N[C@@H](Cc1ccc(O)cc1)C(=O)N[C@@H](CC(N)=O)C(=O)N[C@@H](Cc1c[nH]c2ccccc12)C(=O)N[C@@H](CC(C)C)C(=O)N[C@H](C(=O)N[C@@H](CCCNC(=N)N)C(=O)N[C@@H](CCC(N)=O)C(=O)N[C@@H](CCCNC(=N)N)C(=O)N[C@@H](Cc1ccc(O)cc1)C(N)=O)[C@@H](C)O)C(C)C [Compound 124, N{alpha-4}-(3-methylbutanoyl)-N{epsilon-7}-[2-(2-{2-[2-(2-{2-[(4S)-4-carboxy-4-(17-carboxyheptadecanamido)butanamido]ethoxy}ethoxy)acetamido]ethoxy}ethoxy)acetamido]-[4A,7K,9E,13A,17I,18Q,22V,28Y,30W,31L]hPYY (4-36)] | 58 % vehicle |
| 1.18 nM | CC(C)CC(=O)N[C@@H](C)C(=O)N1CCC[C@H]1C(=O)N[C@@H](CCC(=O)O)C(=O)N[C@@H](CCCCNC(=O)COCCOCCNC(=O)COCCOCCNC(=O)CC[C@H](NC(=O)CCCCCCCCCCCCCCCCC(=O)O)C(=O)O)C(=O)N1CCC[C@H]1C(=O)N[C@@H](CCC(=O)O)C(=O)N[C@@H](CCC(=O)O)C(=O)N[C@@H](CC(=O)O)C(=O)N[C@@H](C)C(=O)N[C@@H](CO)C(=O)N1CCC[C@H]1C(=O)N[C@@H](CCC(=O)O)C(=O)N[C@@H](CCC(=O)O)C(=O)N[C@@H](CC(C)C)C(=O)N[C@@H](CCC(N)=O)C(=O)N[C@@H](CCCCN)C(=O)N[C@@H](Cc1ccc(O)cc1)C(=O)N[C@@H](Cc1ccc(O)cc1)C(=O)N[C@H](C(=O)N[C@H](C(=O)N[C@@H](CC(C)C)C(=O)N[C@@H](CCCNC(=N)N)C(=O)N[C@@H](Cc1c[nH]cn1)C(=O)N[C@@H](Cc1ccc(O)cc1)C(=O)N[C@@H](Cc1ccc(O)cc1)C(=O)N[C@@H](CC(N)=O)C(=O)N[C@@H](Cc1c[nH]c2ccccc12)C(=O)N[C@@H](CC(C)C)C(=O)N[C@H](C(=O)N[C@@H](CCCNC(=N)N)C(=O)N[C@@H](CCC(N)=O)C(=O)N[C@@H](CCCNC(=N)N)C(=O)N[C@@H](Cc1ccc(O)cc1)C(N)=O)[C@@H](C)O)[C@@H](C)O)C(C)C [Compound 132, N{alpha-4}-(3-methylbutanoyl)-N{epsilon-7}-[2-(2-{2-[2-(2-{2-[(4S)-4-carboxy-4-(17-carboxyheptadecanamido)butanamido]ethoxy}ethoxy)acetamido]ethoxy}ethoxy)acetamido]-[4A,7K,9E,18Q,19K,22V,23T,28Y,30W,31L]hPYY (4-36)] | 64 % vehicle |
| 2.31 nM | CC(C)CC(=O)N[C@@H](C)C(=O)N1CCC[C@H]1C(=O)N[C@@H](CCC(=O)O)C(=O)N[C@@H](CCCCNC(=O)COCCOCCNC(=O)COCCOCCNC(=O)CC[C@H](NC(=O)CCCCCCCCCCCCCCCCC(=O)O)C(=O)O)C(=O)N1CCC[C@H]1C(=O)N[C@@H](CCC(=O)O)C(=O)N[C@@H](CCC(=O)O)C(=O)N[C@@H](CC(=O)O)C(=O)N[C@@H](C)C(=O)N[C@@H](CO)C(=O)N1CCC[C@H]1C(=O)N[C@@H](CCC(=O)O)C(=O)N[C@@H](CCC(=O)O)C(=O)N[C@H](C(=O)N[C@@H](CCC(N)=O)C(=O)N[C@@H](CCCNC(=N)N)C(=O)N[C@@H](Cc1ccc(O)cc1)C(=O)N[C@@H](Cc1ccc(O)cc1)C(=O)N[C@H](C(=O)N[C@@H](CCC(=O)O)C(=O)N[C@@H](CC(C)C)C(=O)N[C@@H](CCCNC(=N)N)C(=O)N[C@@H](Cc1c[nH]cn1)C(=O)N[C@@H](Cc1ccc(O)cc1)C(=O)N[C@@H](Cc1ccc(O)cc1)C(=O)N[C@@H](CC(N)=O)C(=O)N[C@@H](Cc1c[nH]c2ccccc12)C(=O)N[C@@H](CC(C)C)C(=O)N[C@H](C(=O)N[C@@H](CCCNC(=N)N)C(=O)N[C@@H](CCC(N)=O)C(=O)N[C@@H](CCCNC(=N)N)C(=O)N[C@@H](Cc1ccc(O)cc1)C(N)=O)[C@@H](C)O)C(C)C)C(C)C [Compound 133, N{alpha-4}-(3-methylbutanoyl)-N{epsilon-7}-[2-(2-{2-[2-(2-{2-[(4S)-4-carboxy-4-(17-carboxyheptadecanamido)butanamido]ethoxy}ethoxy)acetamido]ethoxy}ethoxy)acetamido]-[4A,7K,9E,17V,18Q,22V,23E,28Y,30W,31L]hPYY (4-36)] | 57 % vehicle |
